System: Treponema hyodysenteriae induced swine dysentery
Assay: Treponema hyodysenteriae induced swine dysentery, lysocellin in feed, 51-day trial, challenge on study day 22
Assay type: in vivo
Conditions: for Number of Pigs per Pen Expressing Clinical Signs of Dysentery During the Postchallenge Period: Anorexia / Number of Pigs per Pen Expressing Clinical Signs of Dysentery During the Postchallenge Period: Any clinical signs / Number of Pigs per Pen Expressing Clinical Signs of Dysentery During the Postchallenge Period: Bloody feces / Number of Pigs per Pen Expressing Clinical Signs of Dysentery During the Postchallenge Period: Dehydrated / Number of Pigs per Pen Expressing Clinical Signs of Dysentery During the Postchallenge Period: Depressed / Number of Pigs per Pen Expressing Clinical Signs of Dysentery During the Postchallenge Period: Gauntness / Number of Pigs per Pen Expressing Clinical Signs of Dysentery During the Postchallenge Period: Lethargic / Number of Pigs per Pen Expressing Clinical Signs of Dysentery During the Postchallenge Period: Reddened skin / Number of Pigs per Pen Expressing Clinical Signs of Dysentery During the Postchallenge Period: Rough hair coat / Number of Pigs per Pen Expressing Clinical Signs of Dysentery During the Postchallenge Period: Weak: 5 pigs/pen
Excerpt: One hundred twenty (120) cross-bred barrows and gilts were used in a randomized complete blocks design to evaluate the effect of lysocellin on Treponema hyodysenteriae induced swine dysentery. The swine were divided into 4 groups: (1) non-infected, non-medicated controls, (2) infected non-medicated controls, (3) infected, medicated at 98.43 grams lysocellin/t (100 g/T), and (4) infected, medicated at 196.85 grams lysocellin/t (200 g/T). All were observed through a 51-day trial period. Swine in groups (2)-(4) were challenged with Treponema hyodysenteriae on study day 22 and the post-challenge period data were analyzed for significant differences. A description of the experimental design is summarized as follows:
Comparisons were made on treatment 1 vs. treatments 3 and 4, treatment 2 vs. treatment 3 and 4, and treatment 3 vs. treatment 4. The following observations were made based upon data analyzed: postchallenge performance of swine with respect to daily gain and daily feed gain, number of pigs per pen expressing clinical signs of dysentery during the postchallenge period, number of pig days per pen with clinical signs of dysentery during the postchallenge period, and number of pig days per pen with specified fecal score.
Referring to table 3 and table 4, clinical signs of dysentery observed during the postchallenge period are presented as treatment means of: number of pigs per pen expressing the sign and number of pig days the sign was observed within a pen. The value "pig days" was based on 28 days/pig surviving to the end of the trial or number of days a pig survived during the postchallenge period (for example, 5 pigs/pen on trial for 28 days equals 140 pig days). Removal of pigs from a pen during the trial was taken into account in these calculations.

[1] = 98.43 g/t (100 g/T) lysocellin, mean (lower, higher 95% confidence limits)
[2] = 98.43 g/t (100 g/T) lysocellin, mean (lower, higher 95% confidence limits), 5 pigs/pen for 28 days = 140 pig days
[3] = 196.85 g/t (200 g/T) lysocellin, mean (lower, higher 95% confidence limits)
[4] = 196.85 g/t (200 g/T) lysocellin, mean (lower, higher 95% confidence limits), 5 pigs/pen for 28 days = 140 pig days

## lysocellin
[1]
  Number of Pigs per Pen Expressing Clinical Signs of Dysentery During the Postchallenge Period: Anorexia: 0.00 (-0.27,0.37)
  Number of Pigs per Pen Expressing Clinical Signs of Dysentery During the Postchallenge Period: Any clinical signs: 4.49 (3.42,5.69)
  Number of Pigs per Pen Expressing Clinical Signs of Dysentery During the Postchallenge Period: Bloody feces: 2.73 (1.93,3.66)
  Number of Pigs per Pen Expressing Clinical Signs of Dysentery During the Postchallenge Period: Dehydrated: 1.08 (0.44,1.89)
  Number of Pigs per Pen Expressing Clinical Signs of Dysentery During the Postchallenge Period: Depressed: 1.78 (1.18,2.47)
  Number of Pigs per Pen Expressing Clinical Signs of Dysentery During the Postchallenge Period: Gauntness: 3.98 (3.13,4.92)
  Number of Pigs per Pen Expressing Clinical Signs of Dysentery During the Postchallenge Period: Lethargic: 2.12 (1.50,2.82)
  Number of Pigs per Pen Expressing Clinical Signs of Dysentery During the Postchallenge Period: Reddened skin: 0.87 (0.24,1.69)
  Number of Pigs per Pen Expressing Clinical Signs of Dysentery During the Postchallenge Period: Rough hair coat: 1.93 (1.20,2.79)
  Number of Pigs per Pen Expressing Clinical Signs of Dysentery During the Postchallenge Period: Weak: 1.93 (1.31,2.64)
[2]
  Number of Pig Days per Pen with Clinical Signs of Dysentery During the Postchallenge Period: Anorexia: 0.00 (-0.30,0.43)
  Number of Pig Days per Pen with Clinical Signs of Dysentery During the Postchallenge Period: Bloody feces: 9.98 (5.72,15.34)
  Number of Pig Days per Pen with Clinical Signs of Dysentery During the Postchallenge Period: Dehydrated: 2.69 (1.40,4.33)
  Number of Pig Days per Pen with Clinical Signs of Dysentery During the Postchallenge Period: Depressed: 3.14 (1.78,4.81)
  Number of Pig Days per Pen with Clinical Signs of Dysentery During the Postchallenge Period: Gauntness: 30.35 (20.97,41.42)
  Number of Pig Days per Pen with Clinical Signs of Dysentery During the Postchallenge Period: Lethargic: 9.08 (4.93,14.42)
  Number of Pig Days per Pen with Clinical Signs of Dysentery During the Postchallenge Period: Reddened skin: 2.21 (0.51,4.72)
  Number of Pig Days per Pen with Clinical Signs of Dysentery During the Postchallenge Period: Rough hair coat: 18.07 (7.46,33.11)
  Number of Pig Days per Pen with Clinical Signs of Dysentery During the Postchallenge Period: Weak: 0.87 (0.08,1.99)
196.85 g lysocellin/t (200 g/T) rather than 98.43 g/T, postchallenge period (Table 5, not given)
  fecal condition (number of pen pig days with a specified fecal condition): increased (PM.05) the number of days with normal feces and decreased (P<.05) the incidence of soft, watery or bloody feces
[3]
  Number of Pigs per Pen Expressing Clinical Signs of Dysentery During the Postchallenge Period: Anorexia: 0.00 (-0.27,0.37)
  Number of Pigs per Pen Expressing Clinical Signs of Dysentery During the Postchallenge Period: Any clinical signs: 2.72 (1.87,3.70)
  Number of Pigs per Pen Expressing Clinical Signs of Dysentery During the Postchallenge Period: Bloody feces: 1.20 (0.63,1.89)
  Number of Pigs per Pen Expressing Clinical Signs of Dysentery During the Postchallenge Period: Dehydrated: 0.23 (-0.18,0.80)
  Number of Pigs per Pen Expressing Clinical Signs of Dysentery During the Postchallenge Period: Depressed: 0.27 (-0.06,0.70)
  Number of Pigs per Pen Expressing Clinical Signs of Dysentery During the Postchallenge Period: Gauntness: 1.96 (1.35,2.67)
  Number of Pigs per Pen Expressing Clinical Signs of Dysentery During the Postchallenge Period: Lethargic: 0.43 (0.08,0.87)
  Number of Pigs per Pen Expressing Clinical Signs of Dysentery During the Postchallenge Period: Reddened skin: 0.55 (0.01,1.28)
  Number of Pigs per Pen Expressing Clinical Signs of Dysentery During the Postchallenge Period: Rough hair coat: 1.31 (0.68,2.06)
  Number of Pigs per Pen Expressing Clinical Signs of Dysentery During the Postchallenge Period: Weak: 1.31 (0.78,1.93)
[4]
  Number of Pig Days per Pen with Clinical Signs of Dysentery During the Postchallenge Period: Anorexia: 0.00 (-0.30,0.43)
  Number of Pig Days per Pen with Clinical Signs of Dysentery During the Postchallenge Period: Bloody feces: 3.02 (0.78,6.35)
  Number of Pig Days per Pen with Clinical Signs of Dysentery During the Postchallenge Period: Dehydrated: 0.23 (-0.30,1.09)
  Number of Pig Days per Pen with Clinical Signs of Dysentery During the Postchallenge Period: Depressed: 0.38 (-0.21,1.29)

— patent EP0250134B1, “Method for combating swine dysentery” (IMCERA Group Inc., priority 1986, dated 1987)
